The record followed here is the OligoGym collection.

“And” between values parts separate entries of the source, which are not always exact repeats. Equal values may be shown once. After the bases stand the sugars from the 5' end (letter, count) and the backbone: PS all phosphorothioate, else s phosphorothioate and o phosphodiester by linkage. Methylation of C is not given here. e = 2'-O-(2-methoxyethyl) (MOE); d = 2'-deoxy (DNA)

This data set addresses DGAT2. Particulars: ASO.

Regarding “TGGAGCTCAGAGACTCAGCC (sugars e5 d10 e5, PS)”, the target mRNA inhibition is, setting by setting: (HepG2, 0.12 µM) 77%; (HepG2, 2.5 µM) 19%; (HepG2, 10 µM) 70%; (HepG2, 20 µM) 46%.
As to “CAGGTAGAGTTCTATTGCTT (sugars e5 d10 e5, PS)”, the target mRNA inhibition by setting is: (HepG2, 2.5 µM) 68% and 55%; (HepG2, 10 µM) 89% and 82%.
On to “CCCAGTTTCGGACCCACTGT (sugars e5 d10 e5, PS)”, for which the target mRNA inhibition runs as follows: (HepG2, 0.12 µM) 85%; (HepG2, 2.5 µM) 24% and 25%; (HepG2, 10 µM) 33%; (HepG2, 20 µM) 57%.
For the sequence “TGGTCAGCAGGTTGTGTGTC (sugars e3 d14 e3, PS)”, the target mRNA inhibition (HepG2, 0.12 µM) stood at 57%.
In the case of “TGTACACTTCATTCTCTCCA (sugars e5 d10 e5, PS)”, the target mRNA inhibition runs as follows: (HepG2, 2.5 µM) 41%; (HepG2, 10 µM) 87%.
On to “CAGGACCCACTGGAGCACTG (sugars e5 d10 e5, PS)”, for which the target mRNA inhibition runs as follows: (HepG2, 0.12 µM) 80%; (HepG2, 20 µM) 83%.
“AGCCTGGACAAGTCCTGCCC (sugars e5 d10 e5, PS)”: the target mRNA inhibition was 79% (HepG2, 0.12 µM); 79% and 92% and 91% (HepG2, 20 µM).
In turn, “AGGACACCTGGAGCTGCGGC (sugars e5 d10 e5, PS)” had a target mRNA inhibition (HepG2, 2.5 µM) of 42% and a target mRNA inhibition (HepG2, 10 µM) of 84%.
In the case of “TAGGGCACCAGCCCCCAGGT (sugars e5 d10 e5, PS)”, the target mRNA inhibition (HepG2, 0.12 µM) was 32%.
On to “GTTGGGCAGTCACCATTTGC (sugars e5 d10 e5, PS)”, for which the target mRNA inhibition by setting is: (HepG2, 2.5 µM) 21%; (HepG2, 10 µM) 58%.
As to “TCAGTTCACCTCCAGGACCT (sugars e5 d10 e5, PS)”, the target mRNA inhibition (HepG2, 0.12 µM) is 46%.
Same read-out and setting: as for “CAGGAAGGCACAGAAAAGTG (sugars e5 d10 e5, PS)”, the figure is 28%.
For the sequence “ACCTGGGTTTTTGTGTATTC (sugars e5 d10 e5, PS)”, the target mRNA inhibition (HepG2, 2.5 µM) is 86% and 87%; the target mRNA inhibition (HepG2, 10 µM) is 86% and 90%.
Where the note is “HepG2, 0.12 µM”, “ACCAGCTGCAAGGATGACCT (sugars e5 d10 e5, PS)” had a target mRNA inhibition of 49%.
Still for that read-out and setting: as for “CCTGGTGGTCAGCAGGTTGT (sugars e5 d10 e5, PS)”, the figure is 64%; as for “AGTTTCGGACCCACTGTGAC (sugars e5 d10 e5, PS)”, 63%.
“ACCCAGAGATGGTGATAAGG (sugars e5 d10 e5, PS)” gave a target mRNA inhibition (HepG2, 0.12 µM) of 53%.
Take “TGGACAAGTCATCTTCCAGC (sugars e5 d10 e5, PS)”: the target mRNA inhibition was 52% (HepG2, 2.5 µM) and 74% (HepG2, 10 µM).
Under “HepG2, 0.12 µM”, “TCCGGTCAGCCTCGGCCTGA (sugars e5 d10 e5, PS)” showed a target mRNA inhibition of 20%.
Regarding “GACACACAATATCCATGGAC (sugars e5 d10 e5, PS)”, the target mRNA inhibition came out at 72% (HepG2, 2.5 µM) and 93% (HepG2, 10 µM).
On to “TTGTCCTGGTCCCAGTACTT (sugars e5 d10 e5, PS)”, for which the target mRNA inhibition is, setting by setting: (HepG2, 2.5 µM) 68%; (HepG2, 10 µM) 88%.
As for “TAGCATTGCCACTCCCATTC (sugars e3 d14 e3, PS)”, the target mRNA inhibition (HepG2, 0.12 µM) came to 68%.
The sequence “TGGATACTCAGAAGAGCAGT (sugars e5 d10 e5, PS)” showed a target mRNA inhibition (HepG2, 0.12 µM) of 37%.
Still for that read-out and setting: for “AGGAGCCCTCCTCGAAGATC (sugars e5 d10 e5, PS)” the value was 31%; for “CCCAGTTTCGGACCCACTGT (sugars e2 d13 e5, PS)”, 70%; for “GATAGCATTGCCACTCCCAT (sugars e2 d13 e5, PS)”, 62%.
On to “GAGTAGGCGGCTATGAGGGT (sugars e5 d10 e5, PS)”, for which the target mRNA inhibition (HepG2, 0.12 µM) was found to be 11%.
“CTGGACAAGTCCTGCCCATC (sugars e5 d10 e5, PS)” showed a target mRNA inhibition (HepG2, 0.12 µM) of 77%.
Where the note is “HepG2, 0.12 µM”, “ATCCAGTGCCCCATCTCCCA (sugars e5 d10 e5, PS)” yielded a target mRNA inhibition of 16%.
In turn, “TTCTTGCCAGGCATGGAGCT (sugars e5 d10 e5, PS)” showed a target mRNA inhibition (HepG2, 0.12 µM) of 54%.
As to “GTAGGGCACCAGCCCCCAGG (sugars e5 d10 e5, PS)”, under “HepG2, 0.12 µM”, the target mRNA inhibition worked out at 23%.
Consider “TCCTTTGAAATCCAATGCAC (sugars e5 d10 e5, PS)”, for which the target mRNA inhibition is, setting by setting: (HepG2, 2.5 µM) 75% and 63%; (HepG2, 10 µM) 87% and 77%.
For the sequence “ATAATTTCTTTTAAATAACC (sugars e5 d10 e5, PS)”, for the setting “HepG2, 0.12 µM”, the target mRNA inhibition is 0%.
For the sequence “GGCTTGGAGTAGGGCACCAG (sugars e5 d10 e5, PS)”, where the note is “HepG2, 0.12 µM”, the target mRNA inhibition was 56%.
The same measure, in the same setting: as for “AAGATATAGTTCCTGGTGGT (sugars e5 d10 e5, PS)”, the figure is 41%.
Regarding “GGCCCAGATTTAGCCACCAC (sugars e5 d10 e5, PS)”, the target mRNA inhibition is, setting by setting: (HepG2, 2.5 µM) 51%; (HepG2, 10 µM) 79%.
Turning to “ACAACTCTCTTGTTGGGAGG (sugars e5 d10 e5, PS)”, the target mRNA inhibition was 64% (HepG2, 2.5 µM) and 84% (HepG2, 10 µM).
Where the note is “HepG2, 0.12 µM”, “GGTCAGCCTCGGCCTGACGC (sugars e5 d10 e5, PS)” returned a target mRNA inhibition of 11%.
“CAGTGCCTACAGCAGAGGGA (sugars e5 d10 e5, PS)” came in with a target mRNA inhibition (HepG2, 0.12 µM) of 0%.
On to “AATCTGTGTGACCTTGGGCA (sugars e5 d10 e5, PS)”, for which the target mRNA inhibition was 87% and 82% (HepG2, 2.5 µM); 84% and 93% (HepG2, 10 µM).
Consider “AGAAGGCACCCAGGCCCATG (sugars e5 d10 e5, PS)”, for which, under “HepG2, 0.12 µM”, the target mRNA inhibition came to 38%.
For “CAGGTTCATCTGCCTTGACG (sugars e5 d10 e5, PS)”, the target mRNA inhibition by setting is: (HepG2, 2.5 µM) 69%; (HepG2, 10 µM) 72%.
Sequence “TGTCTTCACCAGCTGGATGG (sugars e5 d10 e5, PS)” had a target mRNA inhibition (HepG2, 0.12 µM) of 55%.
Where the note is “HepG2, 0.12 µM”, “GACTTCCCTTCACAGAATCC (sugars e5 d10 e5, PS)” returned a target mRNA inhibition of 5%.
Same read-out and setting: as for “TAAAGAGGCTGGGCCATAGA (sugars e5 d10 e5, PS)”, the figure is 21%.
Same read-out and setting: for “TACAAAAGTCTGACATGGTG (sugars e5 d10 e5, PS)” the value was 40%.
For “CCAACTCTCAGCTACTCCCC (sugars e5 d10 e5, PS)”, the target mRNA inhibition (HepG2, 2.5 µM) is 95% and the target mRNA inhibition (HepG2, 10 µM) worked out at 79%.
Where the note is “HepG2, 0.12 µM”, “ATTAGCAGTAGCTCAGGAGA (sugars e5 d10 e5, PS)” displayed a target mRNA inhibition of 48%.
On to “GATCACCTGCTTGTACACTT (sugars e5 d10 e5, PS)”, for which the target mRNA inhibition is, setting by setting: (HepG2, 2.5 µM) 36%; (HepG2, 10 µM) 64%.
In the case of “TAGAAATACAATTCCTGGAT (sugars e5 d10 e5, PS)”, for the setting “HepG2, 0.12 µM”, the target mRNA inhibition came to 71%.
The same measure, in the same setting: for “CTCAGAGACTCAGCCGCACC (sugars e2 d13 e5, PS)” the value was 43%.
For “TTGGTCTTTTTGGCTGCCCT (sugars e5 d10 e5, PS)”, under “HepG2, 10 µM”, the target mRNA inhibition is 85% and 82%.
Sequence “GCAAATAGTCTATGGTGTCC (sugars e5 d10 e5, PS)” yielded a target mRNA inhibition (HepG2, 0.12 µM) of 60%.
The same measure, in the same setting: for “CCAGCTGGATGGGAAAGTAG (sugars e5 d10 e5, PS)” the value was 24%; for “AGAGCCAGCACACAGCTATG (sugars e5 d10 e5, PS)”, 20%.
Regarding “AACCACAGCGATAATCACAC (sugars e5 d10 e5, PS)”, the target mRNA inhibition is, setting by setting: (HepG2, 2.5 µM) 66%; (HepG2, 10 µM) 91%.
For the sequence “GCCAACAAGTGGGAAATGCA (sugars e5 d10 e5, PS)”, the target mRNA inhibition is, setting by setting: (HepG2, 2.5 µM) 51%; (HepG2, 10 µM) 80%.
The matching figures for “TTGTACACTTCATTCTCTCC (sugars e5 d10 e5, PS)”: 37% and 84%.
Sequence “ACTTCATTCTCTCCAAAGGA (sugars e5 d10 e5, PS)” registered a target mRNA inhibition (HepG2, 0.12 µM) of 45%.
For the setting “HepG2, 0.12 µM”, “AGGAAGGACAGGACCCACTG (sugars e5 d10 e5, PS)” showed a target mRNA inhibition of 38%.
In the case of “CTGCCATTTAATGAGCTTCA (sugars e5 d10 e5, PS)”, the target mRNA inhibition (HepG2, 10 µM) is 94% and 95% and 89%.
Sequence “GTAGCTGCTTTTCCACCTTG (sugars e5 d10 e5, PS)” returned a target mRNA inhibition (HepG2, 0.12 µM) of 43%.
Turning to “GGCTCAGTTCACCTCCAGGA (sugars e5 d10 e5, PS)”, the target mRNA inhibition is, setting by setting: (HepG2, 2.5 µM) 56%; (HepG2, 10 µM) 90%.
For the sequence “TCCTCTCCTGTTTGATGGGT (sugars e5 d10 e5, PS)”, the target mRNA inhibition (HepG2, 2.5 µM) was 83% and 90%; the target mRNA inhibition (HepG2, 10 µM) is 89% and 84%.
Turning to “TGTGCTCTGTGGGCTCCTCC (sugars e5 d10 e5, PS)”, the target mRNA inhibition was determined as 66% (HepG2, 2.5 µM) and 85% (HepG2, 10 µM).
As to “AGGTTGTGTGTCTTCACCAG (sugars e3 d14 e3, PS)”, for the setting “HepG2, 0.12 µM”, the target mRNA inhibition worked out at 61%.
With “CAGAATGAGACAGGCAGCCC (sugars e5 d10 e5, PS)”, the target mRNA inhibition runs as follows: (HepG2, 2.5 µM) 37%; (HepG2, 10 µM) 82%.
In the case of “TCCATGTCAGAGAGGCT (sugars e3 d10 e4, PS)”, the target mRNA inhibition (HepG2, 2.5 µM) is 78% and 76%; the target mRNA inhibition (HepG2, 10 µM) is 65% and 89%.
In turn, “CCGGAGTAGGCGGCTATGAG (sugars e5 d10 e5, PS)” yielded a target mRNA inhibition (HepG2, 0.12 µM) of 37%.
As to “GAGCACTTGATCTGGGACCC (sugars e5 d10 e5, PS)”, the target mRNA inhibition was 80% and 71% (HepG2, 2.5 µM); 92% and 91% (HepG2, 10 µM).
On to “GCCTTGGGAAGTCTCTCATA (sugars e5 d10 e5, PS)”, for which the target mRNA inhibition is, setting by setting: (HepG2, 2.5 µM) 0%; (HepG2, 10 µM) 58%.
“GGCACCAGCCCCCAGGTGTC (sugars e5 d10 e5, PS)” displayed a target mRNA inhibition (HepG2, 0.12 µM) of 30%.
With “GCTGAGTCTGTGCTGCA (sugars e3 d10 e4, PS)”, the target mRNA inhibition amounted to 56% (HepG2, 2.5 µM) and 85% (HepG2, 10 µM).
In turn, “GGCCCCAGGAGCCCTCCTCG (sugars e5 d10 e5, PS)” returned a target mRNA inhibition (HepG2, 0.12 µM) of 40%.
On to “GCAGCAGGTACTCATGTTTG (sugars e5 d10 e5, PS)”, for which the target mRNA inhibition by setting is: (HepG2, 2.5 µM) 54%; (HepG2, 10 µM) 75%.
In the case of “GCACCAAGGAATGGTGTGTT (sugars e5 d10 e5, PS)”, the target mRNA inhibition was 16% (HepG2, 2.5 µM) and 38% (HepG2, 10 µM).
Regarding “CAGGTTGTGTGTCTTCACCA (sugars e5 d10 e5, PS)”, the target mRNA inhibition is 68% and 76% (HepG2, 0.12 µM); 74% (HepG2, 10 µM); 87% (HepG2, 20 µM).
